Measurements from patent US12459940B2, “Oxazole compound as multi-targeted inhibitor of IRAK4 and BTK” (SHANGHAI FOSUN PHARMACEUTICAL INDUSTRIAL DEVELOPMENT CO., …, priority 2019, dated 2025).
pIC50: −log10 of the molar value. Read-outs that look alike come from different tables or passages of the source.

Tests used:
human IRAK4 = biological target: T1, human IRAK4 (Homo sapiens, UniProt Q9NWZ3); assay: In vitro IRAK4 kinase activity, 33P isotope-labeled kinase activity assay (Reaction Biology Corp); assay type: biochemical
T1 construct: purchased Reaction Biology Corp
T1 sequence (Q9NWZ3 1-460): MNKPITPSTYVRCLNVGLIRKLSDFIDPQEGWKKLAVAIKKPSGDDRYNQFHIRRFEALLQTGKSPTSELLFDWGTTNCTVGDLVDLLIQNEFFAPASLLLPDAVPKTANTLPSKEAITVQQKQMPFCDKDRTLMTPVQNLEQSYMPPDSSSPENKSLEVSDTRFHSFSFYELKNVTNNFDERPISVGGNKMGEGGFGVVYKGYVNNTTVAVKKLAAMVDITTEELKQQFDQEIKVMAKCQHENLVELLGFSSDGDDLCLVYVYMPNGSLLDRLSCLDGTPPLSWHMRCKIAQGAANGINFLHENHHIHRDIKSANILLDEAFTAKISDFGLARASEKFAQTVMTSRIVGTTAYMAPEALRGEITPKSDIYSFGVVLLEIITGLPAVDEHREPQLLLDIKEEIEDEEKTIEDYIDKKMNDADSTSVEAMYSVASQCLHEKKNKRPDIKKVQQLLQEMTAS
Method: The IC50 values were determined using ^33P isotope-labeled kinase activity assay (Reaction Biology Corp) to evaluate the inhibitory ability of the tested compounds on human IRAK4.
(§1) Buffer conditions: 20 mM Hepes (pH 7.5), 10 mM MgCl2, 1 mM EGTA, 0.02% Brij35, 0.02 mg/mL BSA, 0.1 mM Na3VO4, 2 mM DTT, 1% DMSO.
Test procedure: At room temperature, the tested compound was dissolved in DMSO to prepare a 10 mM solution for later use. The substrate was dissolved in a newly prepared buffer solution, and the tested IRAK4 kinase was added thereto and mixed evenly. The DMSO solution dissolved with the tested compound was added to the above reaction mixture mixed evenly using acoustic technique (Echo 550). After incubation for 15 minutes, ^33P-ATP was added to initiate the reaction.

human BTK = biological target: T2, human BTK (Homo sapiens, UniProt Q06187); assay: In vitro BTK kinase activity, 33P isotope-labeled kinase activity assay (Reaction Biology Corp); assay type: biochemical; details: 33P-ATP, 2 hours at room temperature
T2 construct: purchased Reaction Biology Corp
T2 sequence (Q06187 whole entry): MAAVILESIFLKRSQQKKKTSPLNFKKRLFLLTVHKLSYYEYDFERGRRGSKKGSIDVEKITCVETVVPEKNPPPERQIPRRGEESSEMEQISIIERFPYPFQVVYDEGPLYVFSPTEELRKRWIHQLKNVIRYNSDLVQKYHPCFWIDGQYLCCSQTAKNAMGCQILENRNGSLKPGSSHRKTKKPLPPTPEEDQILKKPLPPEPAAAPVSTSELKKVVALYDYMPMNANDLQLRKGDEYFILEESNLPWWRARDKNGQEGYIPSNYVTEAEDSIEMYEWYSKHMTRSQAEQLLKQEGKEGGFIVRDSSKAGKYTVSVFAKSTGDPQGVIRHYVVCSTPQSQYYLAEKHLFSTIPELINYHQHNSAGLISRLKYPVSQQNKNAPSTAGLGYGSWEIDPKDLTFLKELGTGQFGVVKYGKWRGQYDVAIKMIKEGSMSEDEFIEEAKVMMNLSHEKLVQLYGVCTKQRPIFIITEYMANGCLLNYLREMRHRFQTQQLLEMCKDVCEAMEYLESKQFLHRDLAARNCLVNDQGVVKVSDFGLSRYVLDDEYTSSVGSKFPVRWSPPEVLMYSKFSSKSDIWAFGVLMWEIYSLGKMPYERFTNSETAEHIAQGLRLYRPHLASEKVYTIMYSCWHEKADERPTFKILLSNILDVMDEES
Method: The IC50 values were determined using ^33P isotope-labeled kinase activity assay (Reaction Biology Corp) to evaluate the inhibitory ability of the tested compounds on human BTK.
as §1
Test procedure: At room temperature, the tested compound was dissolved in DMSO to prepare a 10 mM solution for later use. The substrate was dissolved in a newly prepared buffer solution, and the tested BTK kinase was added thereto and mixed evenly. The compound dissolved in DMSO was added to the kinase reaction mixture through Echo 550 (Acoustic technology; Nanoliter range). After incubation for 20 minutes at room temperature, ^33P-ATP was added to initiate the reaction. The reaction was carried out at room temperature for 2 hours, and the radioactivity of the reaction liquid point was detected by filtration-binding method with P81 ion exchange filter paper. The kinase activity data were expressed by comparing the kinase activity of the group containing the tested compound with the kinase activity of the blank group (only containing DMSO), and the IC50 value was obtained by curve fitting by Prism4 software (GraphPad), the experimental results are shown in Table 10.

[1] = tested on: TNF-α production in THP-1 cells; assay: THP-1 cytological TNFa ELISA assay (LPS-stimulated); assay type: cell-based; details: Homo sapiens, TNF-α in culture supernatant, 150 ng/mL LPS, 18 hours
Method: THP-1 human acute […] leukemia cells were purchased from ATCC (Cat #TIB-202) and cultured at 37° C. in 5% CO2 incubator. The composition of medium was RPMI1640 (Gibco, Cat #22400-105), and the supplementary compositions were 10% FBS (Gibco, Cat #10091148); 1% PenStrep (Gibco, Cat #15140); 0.05 mM 2-Mercaptoethanol (Sigma, Cat #M6250).
TNF-α Elisa kit was used to detect the content of TNF-α in cell culture supernatant samples. TNF-α was produced by stimulating THP-1 cells with 150 ng/mL LPS (Sigma, Cat #L6529).
THP-1 cells cultured normally at logarithmic growth stage were seeded in a 96-well plate (Corning #3599) at a certain concentration (1*10^5/100 μL) and then put into a cell incubator for incubation. After two hours, 16.7 μL of different concentrations of the compound to be tested (8*final concentration) were added and incubated in an incubator. After one hour, 16.7 μL of 1200 ng/mL LPS was added and incubated in an incubator. After 18 hours, the culture supernatant samples were collected by centrifugation, and the content of TNF-α could be detected by TNF-α Elisa kit. Finally, OD signals (OD450-OD570) were read on envision board reader.
The OD450-OD570 signal value was converted into a percentage inhibition rate. Inhibition rate %=(ZPE−sample)/(ZPE−HPE)*100.
“HPE” refers to the OD450-OD570 signal value of the control well without LPS stimulated cells, and “ZPE” refers to the OD450-OD570 signal value of the control well with LPS stimulated cells. The IC50 value of the compound was calculated by XLFit in the excel add-in. Y=Bottom+(Top−Bottom)/(1+(IC50/X)^HillSlope). Equation: […]

[2] = tested on: OCI-LY10 human B-cell lymphoma cells; assay: OCI-LY10 cell proliferation inhibition (CellTiter-Glo); assay type: cell-based; details: OCI-Ly10, 72 h, treated for 3 days
Method: OCI-LY10 human B-cell lymphoma cells were cultured in a 37° C., 5% CO2 incubator. The composition of medium was IMDM (GIBCO, Cat #12440053); the supplementary compositions were 20% FBS (Hyclone, Cat #SH30084.03); 1% PenStrep (Thermo, Cat #SV30010).
The tumor cell lines OCI-LY10 and TMD8 were used to detect the effect of the compound on inhibiting tumor cell proliferation in vitro. The tumor cell line was cultured in a 37° C., 5% CO2 incubator according to the culture conditions shown, and passaged regularly, then the cells in the logarithmic growth phase were taken, counted, and spread in a 96-well plate (the cells in each well were adjusted to an appropriate concentration, a total of […] per well was added). After incubating overnight in a 37° C., 5% CO2 incubator, drugs with different concentration gradients (10 μL of drug solution was added) were added and treated for 3 days, then 50 μL of CellTiter-Glo working solution was added to each well, and the cell plate was wrapped with aluminum foil to avoid light. The culture plate was shaken on an orbital shaker for 2 minutes to induce cell lysis, and placed at room temperature for 10 minutes to stabilize the luminescence signal, then the luminescence signal was detected on the 2104 EnVision plate reader.
The Inhibition rate (IR) of the tested compound was calculated using the following formula: IR (%)=(1−(RLU compound−RLU blank control)/(RLU solvent control−RLU blank control))*100%.
The inhibition rates of different concentrations of the compounds were calculated in Excel, and then the inhibition curves were made by GraphPad Prism software and the related parameters were calculated, including the minimum inhibition rate, the maximum inhibition rate and IC50.

[3] = 33P-ATP, 120 minutes at room temperature, read-out: IRAK4/IC50

SMILES	pIC50 (human IRAK4; [3])	pIC50 (human BTK)	pIC50 [1]	pIC50 (human IRAK4)	pIC50 [2]
CC(C)(O)CCc1cn2cc(NC(=O)c3coc(-c4ccnc(C5CC5)c4)n3)c(N3CCCCC3)cc2n1 [WX012]	9.00	8.16			
Cc1cc(-c2nc(C(=O)Nc3cn4cc(CCC(C)(C)O)nc4cc3N3CCC(O)CC3)co2)ccn1 [WX006]		7.32	6.97	8.92	
Cc1cc(-c2nc(C(=O)Nc3cn4cc(CCC(=O)O)nc4cc3N3CCC(F)(F)CC3)co2)ccn1 [WX017]	8.80		6.49		
CC(=O)N1CCN(c2cc3nc(CCC(C)(C)O)cn3cc2NC(=O)c2coc(-c3ccnc(C)c3)n2)CC1 [WX005]	8.96		6.59		
[2H]c1c([2H])c([2H])c(-c2cc3nc(CCC(C)(C)O)cn3cc2NC(=O)c2coc(-c3ccnc(C)c3)n2)c([2H])c1[2H] [WX033]	8.80	7.69			
Cc1cc(-c2nc(C(=O)Nc3cn4cc(CCC(=O)O)nc4cc3N3CCCCC3)co2)ccn1 [WX018]		7.32	6.98	9.05	
Cc1cc(-c2nc(C(=O)Nc3cn4cc(CCC(=O)O)nc4cc3N3CCC(CO)CC3)co2)ccn1 [WX020]		8.07		9.30	
Cc1cc(-c2nc(C(=O)Nc3cn4cc(CCC(C)(C)O)nc4cc3-c3cccs3)co2)ccn1 [WX032]		7.58			6.41
Cc1cc(-c2nc(C(=O)Nc3cn4cc(CCC(C)(C)O)nc4cc3N3CCOCC3)co2)ccn1 [WX002]				8.92	
CC(C)c1cc(-c2nc(C(=O)Nc3cn4cc(CCC(C)(C)O)nc4cc3N3CCCCC3)co2)ccn1 [WX011]		7.63	6.85	8.82	
Cc1cc(-c2nc(C(=O)Nc3cn4cc(CCC(C)(C)O)nc4cc3-c3ccc(F)cc3)co2)ccn1 [WX026]		7.51			6.46
COC(=O)N1CCN(c2cc3nc(CCC(C)(C)O)cn3cc2NC(=O)c2coc(-c3ccnc(C)c3)n2)CC1 [WX004]			7.11	8.89	
Cc1cc(-c2nc(C(=O)Nc3cn4cc(CCS(C)(=O)=O)nc4cc3N3CCCCC3)co2)ccn1 [WX042]		8.42			
Cc1cc(-c2nc(C(=O)Nc3cn4cc(CCC(C)(C)O)nc4cc3N3CCC(CN)CC3)co2)ccn1 [WX014]		7.59		9.05	
Cc1cc(-c2nc(C(=O)Nc3cn4cc(CCC(C)(C)O)nc4cc3-c3c(F)cccc3F)co2)ccn1 [WX029]		7.62			6.54
Cc1cc(-c2nc(C(=O)Nc3cn4cc(CCC(=O)O)nc4cc3-c3ccccc3)co2)ccn1 [WX039]	9.00	7.54			
Cc1cc(-c2nc(C(=O)Nc3cn4cc(CCC(C)(C)O)nc4cc3C3CCCCC3)co2)ccn1 [WX022]		7.37		9.15	
Cc1cc(-c2nc(C(=O)Nc3cn4cc(CCC(C)(C)O)nc4cc3N3CCNCC3)co2)ccn1 [WX003]			6.25	8.66	
Cc1cc(-c2nc(C(=O)Nc3cn4cc(CCC(C)(C)O)nc4cc3-c3ccc(Cl)cc3)co2)ccn1 [WX030]					6.68
Cc1cc(-c2nc(C(=O)Nc3cn4cc(CCC(C)(C)O)nc4cc3N3CCC(C)(C)CC3)co2)ccn1 [WX008]	8.68	8.34			
Cc1cc(-c2nc(C(=O)Nc3cn4cc(CCC(=O)O)nc4cc3-c3cccnc3)co2)ccn1 [WX023]	8.08				
CC(C)(O)CCc1cn2cc(NC(=O)c3coc(-c4ccnc(C(F)(F)F)c4)n3)c(N3CCCCC3)cc2n1 [WX010]	8.62		6.48		
Cc1cc(-c2nc(C(=O)Nc3cn4cc(CCC(C)(C)O)nc4cc3-c3ccccc3C(N)=O)co2)ccn1 [WX027]	7.96				
Cc1cc(-c2nc(C(=O)Nc3cn4cc(CCC(C)(C)O)nc4cc3N3CCC(F)(F)CC3)co2)ccn1 [WX009]		7.34		9.15	
Cc1cc(-c2nc(C(=O)Nc3cn4cc(CCC(C)(C)O)nc4cc3-c3cccc(Cl)c3)co2)ccn1 [WX031]		7.40			7.02
Cc1cc(-c2nc(C(=O)Nc3cn4cc(CCC(C)(C)O)nc4cc3C3CC3)co2)ccn1 [WX007]	8.70		6.62		
CC(C)(O)CCc1cn2cc(NC(=O)c3coc(-c4ccnc(C#N)c4)n3)c(N3CCCCC3)cc2n1 [WX015]		8.19		9.40	
Cc1cc(-c2nc(C(=O)Nc3cn4cc(CCC(C)(C)O)nc4cc3N3CCC(CO)CC3)co2)ccn1 [WX013]	9.70	8.85			
CC(C)(O)CCc1cn2cc(NC(=O)c3coc(-c4ccnc(C(N)=O)c4)n3)c(N3CCCCC3)cc2n1 [WX044]	8.72				
Cc1cc(-c2nc(C(=O)Nc3cn4cc(CCC(C)(C)O)nc4cc3N3CCC(C(=O)O)CC3)co2)ccn1 [WX046]	8.60	7.37			
